From patent US8058009B2, “Target protein and target gene in drug designing and screening method” (Reverse Proteomics Research Institute Co., Ltd., priority 2004, dated 2011) come the findings set out here.

Test [1] concerns the target T1, FLJ31146-derived protein (Homo sapiens, UniProt Q9BSE4).
T1 construct: made in house; host or cells: wheat germ cell-free synthesis system (PROTEIOS, Toyobo)
T1 sequence (Q9BSE4 1-406): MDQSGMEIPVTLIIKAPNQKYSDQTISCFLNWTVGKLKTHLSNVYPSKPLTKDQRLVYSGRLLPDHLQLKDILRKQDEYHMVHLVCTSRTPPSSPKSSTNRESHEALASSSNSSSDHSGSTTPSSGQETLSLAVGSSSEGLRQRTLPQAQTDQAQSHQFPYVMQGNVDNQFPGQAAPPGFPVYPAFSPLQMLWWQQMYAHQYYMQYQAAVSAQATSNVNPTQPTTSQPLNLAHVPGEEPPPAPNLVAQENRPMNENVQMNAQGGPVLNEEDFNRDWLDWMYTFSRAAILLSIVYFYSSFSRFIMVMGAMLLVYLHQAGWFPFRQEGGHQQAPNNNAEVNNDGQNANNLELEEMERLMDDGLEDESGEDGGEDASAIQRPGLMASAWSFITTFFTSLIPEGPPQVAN
The experiment in a line: Biacore S51 surface plasmon resonance binding to FLJ31146-derived protein. As to the method:
(§1) A desired gene of a human full-length cDNA clone was BP-reacted with the PCR cloning vector Gateway pDONR201 using the Invitrogen Gateway system per the kit protocol to yield an entry vector. […]
(§2) The surface of the CM5 sensor chip for S51 commercially available from Biacore Company was subjected to an NTA treatment with 1 M EDC, 1.33 M NHS and 16 mg/ml AB-NTA (pH 9.2) to prepare an NTA sensor chip for S51. […] A correction for the effect of DMSO contained in the compound solutions and running buffer (solvent correction) was performed on the basis of measured results from separately prepared solutions mimicking the running buffer, and containing 3.8 to 5.1% of DMSO (8 points). The compound characterization assay program for Biacore S51 was performed to measure the interactions between immobilized ligands (proteins) and analytes (compounds; 62.5 μM to 0.244 μM), and the results were analyzed using a dedicated software program. […]

Test [2] addresses T2, FLJ11045-derived protein (Homo sapiens, UniProt Q9BXT8, E1380K).
T2 construct: made in house; host or cells: wheat germ cell-free synthesis system (PROTEIOS, Toyobo)
T2 sequence (Q9BXT8 949-1581 isoform Q9BXT8-4 E1338K): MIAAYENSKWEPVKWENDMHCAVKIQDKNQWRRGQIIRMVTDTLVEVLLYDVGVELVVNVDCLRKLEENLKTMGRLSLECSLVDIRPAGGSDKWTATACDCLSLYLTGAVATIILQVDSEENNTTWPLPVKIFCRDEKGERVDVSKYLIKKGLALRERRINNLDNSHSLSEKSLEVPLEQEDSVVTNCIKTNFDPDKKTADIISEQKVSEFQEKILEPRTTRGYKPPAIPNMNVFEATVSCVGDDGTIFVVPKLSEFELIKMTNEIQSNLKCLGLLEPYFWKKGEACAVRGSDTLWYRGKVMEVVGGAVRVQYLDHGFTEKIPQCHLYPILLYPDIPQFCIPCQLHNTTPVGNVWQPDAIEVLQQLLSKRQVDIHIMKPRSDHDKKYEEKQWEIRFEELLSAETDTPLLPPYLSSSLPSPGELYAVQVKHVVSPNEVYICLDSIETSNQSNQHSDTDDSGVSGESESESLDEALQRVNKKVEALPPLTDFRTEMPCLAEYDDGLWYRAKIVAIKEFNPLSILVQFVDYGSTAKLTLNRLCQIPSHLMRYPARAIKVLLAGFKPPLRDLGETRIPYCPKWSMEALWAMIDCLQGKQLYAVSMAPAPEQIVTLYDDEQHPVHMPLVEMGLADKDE
The experiment in a line: Biacore S51 surface plasmon resonance binding to FLJ11045-derived protein.
Source text: A desired gene of a human full-length cDNA clone was BP-reacted with the PCR cloning vector Gateway pDONR201 using the Invitrogen Gateway system per the kit protocol to yield an entry vector. As the destination vector for the Gateway system, a Gateway cassette having a Gateway recombinant sequence was introduced to allow the utilization of the Gateway system on the basis of pEU3-NII (Toyobo), which matches with a cell-free protein synthesis system (PROTEIOS) of Toyobo Co., Ltd., which employs a wheat germ extract, and a double tag destination vector modified using the PCR method to allow the expression of a peptide having a histidine tag and a FLAG tag sequence in the N-terminal region of the expressed protein was prepared.
The prepared double tag destination vector and entry vector were […] using the Invitrogen Gateway system per the protocol and the Escherichia coli competent cell DH5α was transformed therewith; a clone incorporating the expression vector was selected. A plasmid was prepared from the obtained clone using the QIAfilter Midi kit (QUIAGEN) per the kit protocol. The plasmid obtained was subjected to phenol/chloroform treatment per the protocol for PROTEIOS (Toyobo) to inactivate the RNase to yield a purified expression plasmid.
A recombinant protein was synthesized using a cell-free protein synthesis system (PROTEIOS) of Toyobo Co., Ltd., which employs a wheat germ extract. Subsequently, mRNA was prepared from the expression plasmid acquired by the method described in section 1 above per the protocol for PROTEIOS. With 20 μg of the mRNA acquired, a protein was synthesized per the protocol for PROTEIOS using two wells of a 96-well microtiter plate. The protein synthesized was subjected to high-speed centrifugation, the precipitate was removed, and the resulting soluble fraction was purified using ANTI-FLAG M2 Affinity Gel (SIGMA Company) having an anti-FLAG tag antibody immobilized hereto per the protocol, to yield a purified protein.
as §2
On the technique in general: SPR reads the build-up and loss of mass on a sensor chip optically.

Test [3] deals with T3, FLJ14467-derived protein (Homo sapiens, UniProt Q9HB40).
T3 construct: made in house; host or cells: wheat germ cell-free synthesis system (PROTEIOS, Toyobo)
T3 sequence (Q9HB40 27-452): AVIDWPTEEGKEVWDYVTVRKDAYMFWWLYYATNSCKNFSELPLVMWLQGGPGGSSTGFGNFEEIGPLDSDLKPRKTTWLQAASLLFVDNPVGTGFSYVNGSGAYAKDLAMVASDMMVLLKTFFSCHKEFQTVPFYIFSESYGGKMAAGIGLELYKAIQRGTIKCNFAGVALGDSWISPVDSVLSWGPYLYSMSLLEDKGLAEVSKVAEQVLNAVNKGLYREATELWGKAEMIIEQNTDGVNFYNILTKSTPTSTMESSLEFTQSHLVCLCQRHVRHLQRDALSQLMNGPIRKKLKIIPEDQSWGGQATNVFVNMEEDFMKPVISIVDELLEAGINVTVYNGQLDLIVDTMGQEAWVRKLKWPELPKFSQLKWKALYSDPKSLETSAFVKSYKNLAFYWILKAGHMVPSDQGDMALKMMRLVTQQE
Put plainly: Biacore S51 surface plasmon resonance binding to FLJ14467-derived protein. The method, then:
as §1, §2

The target of test [4] is T4, FLJ10335-derived protein (Homo sapiens, UniProt Q9NW38, S77P).
T4 construct: made in house; host or cells: wheat germ cell-free synthesis system (PROTEIOS, Toyobo)
T4 sequence (Q9NW38 1-375 S77P): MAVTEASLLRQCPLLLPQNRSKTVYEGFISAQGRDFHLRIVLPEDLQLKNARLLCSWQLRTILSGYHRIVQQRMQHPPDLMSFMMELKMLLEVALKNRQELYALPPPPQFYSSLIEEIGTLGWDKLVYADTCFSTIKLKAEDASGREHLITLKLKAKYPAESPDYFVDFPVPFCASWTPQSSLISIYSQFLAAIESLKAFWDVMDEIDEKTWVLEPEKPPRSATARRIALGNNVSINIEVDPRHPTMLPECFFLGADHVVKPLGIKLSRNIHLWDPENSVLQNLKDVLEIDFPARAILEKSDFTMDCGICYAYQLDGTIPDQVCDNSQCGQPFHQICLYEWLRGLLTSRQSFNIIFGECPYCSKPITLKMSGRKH
The experiment in a line: Biacore S51 surface plasmon resonance binding to FLJ10335-derived protein. The method, then:
as §1, §2

Test [5] has as its target T5, FLJ11474-derived protein (Homo sapiens, UniProt Q9BVC4).
T5 construct: made in house; host or cells: wheat germ cell-free synthesis system (PROTEIOS, Toyobo)
Put plainly: Biacore S51 surface plasmon resonance binding to FLJ11474-derived protein. As to the method:
as §1, §2

The target of test [6] is T6, FLJ14797-derived protein (Homo sapiens, UniProt Q9UGJ1).
T6 construct: made in house; host or cells: wheat germ cell-free synthesis system (PROTEIOS, Toyobo)
T6 sequence (Q9UGJ1 whole entry): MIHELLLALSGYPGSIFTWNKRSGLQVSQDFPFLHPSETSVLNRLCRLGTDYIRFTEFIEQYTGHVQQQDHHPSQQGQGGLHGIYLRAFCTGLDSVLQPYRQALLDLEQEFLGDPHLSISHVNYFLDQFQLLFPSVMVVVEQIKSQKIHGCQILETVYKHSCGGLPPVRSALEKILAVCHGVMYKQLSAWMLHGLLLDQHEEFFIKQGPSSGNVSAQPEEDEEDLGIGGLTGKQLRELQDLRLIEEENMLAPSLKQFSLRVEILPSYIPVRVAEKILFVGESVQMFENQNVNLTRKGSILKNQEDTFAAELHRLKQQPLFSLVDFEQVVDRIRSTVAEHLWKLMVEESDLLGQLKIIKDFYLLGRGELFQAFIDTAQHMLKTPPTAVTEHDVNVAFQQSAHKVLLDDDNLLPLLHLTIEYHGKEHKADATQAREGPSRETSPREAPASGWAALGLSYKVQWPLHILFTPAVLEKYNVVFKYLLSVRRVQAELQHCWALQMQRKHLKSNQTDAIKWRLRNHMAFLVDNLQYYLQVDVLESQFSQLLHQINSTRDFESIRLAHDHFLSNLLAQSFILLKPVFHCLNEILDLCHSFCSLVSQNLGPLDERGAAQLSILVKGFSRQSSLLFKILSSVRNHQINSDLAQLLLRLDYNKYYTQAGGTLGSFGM
Put plainly: Biacore S51 surface plasmon resonance binding to FLJ14797-derived protein. As to the method: as §1, §2

T5 sequence (Q9BVC4 1-325 isoform Q9BVC4-5): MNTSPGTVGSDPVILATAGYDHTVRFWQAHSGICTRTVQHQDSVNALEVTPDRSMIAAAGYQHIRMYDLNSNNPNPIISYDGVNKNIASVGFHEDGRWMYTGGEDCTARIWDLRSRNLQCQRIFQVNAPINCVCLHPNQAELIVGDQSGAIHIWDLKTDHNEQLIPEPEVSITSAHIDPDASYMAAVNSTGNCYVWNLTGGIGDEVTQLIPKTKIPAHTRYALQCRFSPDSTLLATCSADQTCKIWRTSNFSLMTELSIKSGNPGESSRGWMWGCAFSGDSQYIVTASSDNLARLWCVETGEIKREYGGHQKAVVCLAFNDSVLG

On to `CC1(C)S[C@@H]2[C@H](NC(=O)[C@H](N)c3ccccc3)C(=O)N2[C@H]1C(=O)O` [ampicillin], for which the “interaction with the protein (binding level dose-proportional, saturated at high doses)” value (“interaction with the protein” below) in test [1] is “interact specifically”.

A word on the Kd: it is the free concentration of one partner at which half of the binding sites on the other are occupied at equilibrium, for simple one-to-one binding. For the compound `N[C@@H](C(=O)N[C@@H]1C(=O)N2C(C(=O)O)=C(Cl)CS[C@H]12)c1ccccc1` [cefaclor], in test [2] (Biacore S51, immobilized FLJ11045-derived protein, analyte 62.5 μM to 0.244 μM, read-out: binding dissociation constant Kd), the Kd was found to be 12.4 µM. The “interaction with the protein” value in test [2] (FLJ11045-derived protein, Biacore S51) was “interact specifically”; in test [3] it was “interact specifically”; in test [4], “interact specifically”; in test [5], “interact specifically”.

For the compound `O=C(c1ccc(F)cc1)C1CCN(CCn2c(=O)[nH]c3ccccc3c2=O)CC1` [ketanserin], the “interaction with the protein” value in test [6] is recorded as “interact specifically”.
